Experimental data reported in patent US10154970B2, “Methods for immunomodulation of cancer and infectious disease therapy” (The Regents of the University of California, priority 2014, dated 2018).

How the values were obtained:
[1] = test system: IFN-γ; assay: Example 6: serum IFN-γ on Day 28 in allograft-bearing mice; format: in vivo, C57BL/6 wild type mice; details: Day 28, 48 hours after final PV dose; TRIP 100 mg/kg
Experimental: Each of four weekly 100-μg injections of peptide vaccine (PV) was preceded by three daily oral doses of TRIP (100 mg/kg). All mice were implanted with breast cancer allografts on Day 0, and serum was collected on Day 28 following four weeks of treatment. […] For all treatment groups, n=8.
A total of 32 female C57BL/6 wild type mice were assigned to four treatment groups (n=8): Control; TRIP (i.e., ospemifene) 100 mg/kg; tecemotide (L-BLP25) peptide vaccine (PV) (100 μg); and TRIP 100 mg/kg combined with 100 μg PV. On Day 0 of the study, all 32 mice were subcutaneously implanted with 1.0×10^6 mouse breast cancer cells expressing the PV target antigen (BP25). Two days later, mice began a three-day regimen of once daily 100 mg/kg TRIP administered orally. On Day 5, mice were administered their first weekly 100 μg dose of PV by subcutaneous injection. This treatment schedule was repeated for a total of four weeks. […] All mice were euthanized on Day 28 for the collection of serum and spleens to assess immune response to treatment. Immune response was assessed by performing IFN-γ ELISpot.

[2] = test system: IFN-γ; details: chronic daily TRIP 50 mg/kg + two cycles of PV
Experimental: (§1) FIG. 15. […] Antigen-specific IFN-γ immune response was assessed by ELISpot 48 hours following two cycles of peptide vaccine (PV).
(§2) A total of 55 mixed-sex hMUC1.Tg C57BL/6 mice, starting at approximately five weeks of age, were treated with urethane as described above. Approximately six weeks after the last dose of urethane, mice were randomized into four treatment groups of approximately equal average weight: Control (n=22); TRIP (i.e., ospemifene) 50 mg/kg (n=16); tecemotide (L-BLP25) peptide vaccine (PV) (n=6); and TRIP+PV (n=11). At this time (Week 21), mice assigned to the […] began treatment with the first of two cycles consisting of eight weekly 10 μg doses each, with approximately four weeks between cycles. Cycle 1 was administered during Weeks 21-28, and Cycle 2 from Weeks 32-39. The PV was prepared and administered as described above. Mice in the TRIP groups began daily oral treatment in Week 31, which continued through the end of the study (approximately eight weeks of dosing). TRIP was prepared and administered as described above. Mice not assigned to TRIP treatment received daily oral doses of diluent. At the conclusion of the study, 48 h after the final dose of PV and 24 h after the last dose of TRIP, all mice were euthanized for the collection of serum and spleens, which were processed as described above for multiplex serum cytokine, Treg, and CTL analyses.

[3] = test system: cytotoxic T lymphocyte activity
Experimental: as §1, §2

[4] = test system: IFN-γ; assay: IFN-γ mRNA expression in Jurkat cells by qRT-PCR, normalized with GAPDH; format: cell-based, human
Experimental: FIG. 1. Interferon gamma (IFN-γ) and interleukin (IL)-2 expression in human Jurkat cells following exposure to TRIP in vitro. Jurkat cells (2×10^6) were treated with different concentrations of TRIP as indicated for 24 hours. (A) IFN-γ and (B) IL-2 mRNA expression levels were detected by quantitative real-time polymerase chain reaction (qRT-PCR) and normalized with the expression of GAPDH. *p<0.05, **p<0.01, ***p<0.001.
FIG. 2. Effect of tamoxifen on TRIP-induced expression of IFN-γ in vitro. Jurkat cells (2×10^6) were treated with TRIP (2.5 μM) and/or tamoxifen (2.5 μM) for 24 hours. The expression levels of IFN-γ were analyzed by qRT-PCR and normalized with GAPDH. **p<0.01, ***p<0.005.
FIG. 3. Effects of TRIP alone and in combination with trifluoperazine (TFP) or LY294002 (LY) on IFN-γ and IL-2 in human Jurkat cells in vitro. Jurkat cells (2×10^6) were pretreated with different concentrations of (A, B) TFP (0, 0.1, 1.0, 5.0, and 10.0 μM) and (C, D) LY294002 (0, 1, 5, 10, and 25 μM) for 1 hour, then incubated with medium containing 2.5 μM of TRIP for 24 hours. (A, C) IFN-γ and (B, D) IL-2 mRNA expression levels were detected by qRT-PCR and normalized with the expression of GAPDH. *p<0.05, **p<0.01, ***p<0.001.
FIG. 4. Effects of calmodulin, PI3K and MAPK inhibition on TRIP-induced expression of IFN-γ and IL-2 in human Jurkat cells in vitro. Jurkat cells (2×10^6) were pretreated with PD98059 (50 μM), TFP (10 μM) and LY294002 (25 μM) for 1 hour, then incubated with medium containing 2.5 μM of TRIP for 24 hours. (A) IFN-γ and (B) IL-2 mRNA expression levels were detected by qRT-PCR and normalized with the expression of GAPDH. **p<0.01, ***p<0.001, ****p<0.0001.
The potential immune regulating effects of TRIP and the possible mechanism(s) involved were determined with in vitro experiments examining the expression of T cell activating cytokines in human acute T cell leukemia Jurkat cells. The expression of IFN-γ and IL-2 RNA following exposure to increasing concentrations of TRIP (i.e., ospemifene) were first examined, followed by the effects of combining tamoxifen with TRIP on the expression of these cytokines. Different inhibitors of key T cell activation pathways—trifluoperazine (TFP), an inhibitor of calmodulin, LY294002, an inhibitor of PI3K, and PD98059, a MAPK inhibitor—in combination with TRIP were assessed for their effects on TRIP-induced expression of IFN-γ and IL-2 in Jurkat cells.
Jurkat cells (2.0×10^6) were treated with different concentrations of TRIP as indicated on the x-axis for 24 hours. (A) IFN-γ and (B) IL-2 mRNA expression levels were detected by quantitative real-time polymerase chain reaction (qRT-PCR) and normalized with the expression of GAPDH. *p<0.05, **p<0.01, ***p<0.001.
The expression levels of IFN-γ were analyzed by qRT-PCR and normalized with GAPDH. **p<0.01, ***p<0.001.
T cell activation requires multiple signals including PI3K, MAPK and calcium signaling pathways, and in order to identify the potential mechanism through which TRIP affects immune activation, Jurkat cells (2.0×10^6) were pretreated with different concentrations of TFP (0, 0.1, 1.0, 5.0 and 10.0 μM) (A, B) or LY294002 (0, 1, 5, 10 and 25 μM) (C, D) for one hour, then incubated with medium containing 2.5 μM TRIP for 24 hours. IFN-γ and IL-2 expression levels were detected by qRT-PCR and normalized with the expression of GAPDH. *p<0.05, **p<0.01, ***p<0.001.
Jurkat cells (2×10^6) were pretreated with PD98059 (50 μM), TFP (10 μM) or LY294002 (25 μM) for one hour, then incubated with medium containing 2.5 μM TRIP for 24 hours. (A) IFN-γ and (B) IL-2 mRNA expression levels were detected by qRT-PCR and normalized with expression of GAPDH. **p<0.01, ***p<0.001, ****p<0.0001.
The effects on T cell activation of different functional group substitutions on the TRIP chemical structure (Formula Ia) were examined by measuring the expression of IFN-γ and IL-2 RNA in human acute T cell leukemia Jurkat cells in vitro. […]

[5] = test system: regulatory T cell (Treg); details: chronic daily TRIP 50 mg/kg + two cycles of PV
Experimental: as §2

[6] = chronic daily TRIP 50 mg/kg + PV

In the case of `OCCOc1ccc(/C(=C(/CCCl)c2ccccc2)c2ccccc2)cc1` [TRIP, Z-2-[4-(4-chloro-1,2-diphenyl-but-1-enyl)-phenoxy]ethanol], the “serum IFN-γ compared to the control and TRIP alone treatment groups, TRIP + PV” value [1] is reported as “significantly increased”, the “PV-induced, antigen-specific immune response (IFN-γ ELISpot)” value [2] is reported as “significantly decreased” and the “CTL activity of the combination over that of PV alone” value [3, 6] is reported as “increased CTL activity”. For the same compound, the “additive CTL activity in combination with PV” value [3, 6] was “no additive CTL activity”, the “CTL activity compared to control” value ([3]; chronic daily TRIP 50 mg/kg alone) was “slightly, but not significantly increased” and the “expression of IFN-γ compared to control, TRIP+tamoxifen” value ([4]; Jurkat cells, TRIP 2.5 μM plus tamoxifen 2.5 μM, 24 hours (FIG. 2)) was “significantly increased”. The “IFN-γ RNA expression compared to control” value ([4]; Jurkat cells, different concentrations of TRIP, 24 hours, dose-dependent (FIG. 1A)) was “significantly induced”, the “expression of IFN-γ compared to control” value ([4]; Jurkat cells, single agent 2.5 μM, 24 hours (FIG. 2)) was “significantly increased” and the “IFN-γ Expression” value ([4]; mRNA in Jurkat cells in vitro, relative to control sample without TRIP compound) was “+++ (strong increase)”. For the same compound, the “PV-induced immune response as assessed by Treg expression” value [5] was “did not significantly affect”.
